Drawing on PMC9735621, “Synthesis, Biological Evaluation and Computational Studies of New Hydrazide Derivatives Containing 1,3,4-Oxadiazole as Antitubercular Agents” (International Journal of Molecular Sciences, 2022), this text covers MIC for 16 compounds.

The structures appear in SMILES notation. Values joined by “and” are separate entries in the source; they are usually repeats but may differ in a detail not shown here. Equal values may be shown once.

Holding throughout (assay): microbe, parasite or virus in culture
What all share (assay type): cell-based

Assay [1] has as its system M. tuberculosis Rifa-R ATCC 35838. Particulars: Mycobacterium tuberculosis, ATCC35838.
The test system of assay [2] is M. tuberculosis INH-R ATCC35822. Particulars: Mycobacterium tuberculosis.
Assay [3] deals with M. tuberculosis Pyr-R ATCC 35828. Particulars: Mycobacterium tuberculosis, ATCC35828.
Assay [4] has as its system M. tuberculosis Strepto-R ATCC 35820. The note with it: Mycobacterium tuberculosis, ATCC35820.

Regarding `O=C(N/N=C\c1ccc(Cl)cc1)c1nnc(-c2ccncc2)o1` [1b, (Z)-N’-(4-chlorobenzyliden)-5-(pyridin-4-yl)-1,3,4-oxadiazol-2-carbohydrazide], the MIC in assay [1], in assay [2], in assay [3] and in assay [4] was > 64 µg/mL in each case.
With `NNC(=O)c1ccncc1` [INH, Isoniazid, reference compound], the MIC in assay [1] is 0.25 µg/mL and 1.8 µM; in assay [2], > 64 µg/mL; in assay [3] it was 0.25 µg/mL and 1.8 µM; in assay [4], 0.25 µg/mL and 1.8 µM.
Turning to `O=C(N/N=C\c1ccco1)c1nnc(-c2ccncc2)o1` [1g, (Z)-N’-(furan-2-ylmethylen)-5-(pyridin-4-yl)-1,3,4-oxadiazol-2-carbohydrazide], the MIC in assay [1], in assay [2], in assay [3] and in assay [4] was > 64 µg/mL throughout.
`O=C(N/N=C\c1ccc[nH]1)c1nnc(-c2ccccc2)o1` [1k, (Z)-N’-((1H-pyrrol-2-yl)methylen)-5-phenyl-1,3,4-oxadiazol-2-carbohydrazide]: the MIC was > 64 µg/mL in assay [1]; > 64 µg/mL in assay [2]; 4 µg/mL and 14.1 µM in assay [3]; > 64 µg/mL in assay [4].
As for `O=C(N/N=C\c1ccc(Cl)cc1)c1nnc(-c2ccccc2)o1` [1i, (Z)-N’-(4-chlorobenzyliden)-5-phenyl-1,3,4-oxadiazol-2-carbohydrazide], the MIC in assay [1] was > 64 µg/mL; in assay [2], > 64 µg/mL; in assay [3] it was 32 µg/mL and 97.8 µM; in assay [4] it was > 64 µg/mL.
`O=C(N/N=C\c1ccccc1)c1nnc(-c2ccncc2)o1` [1a, (Z)-N’-benzyliden-5-(pyridin-4-yl)-1,3,4-oxadiazol-2-carbohydrazide]: the MIC in assay [1], in assay [2], in assay [3] and in assay [4] was > 64 µg/mL each time.
In the case of `O=C(N/N=C\c1ccc[nH]1)c1nnc(-c2ccncc2)o1` [1d, (Z)-N’-((1H-pyrrol-2-yl)methylen)-5-(pyridin-4-yl)-1,3,4-oxadiazol-2-carbohydrazide], the MIC in assay [1], in assay [2], in assay [3] and in assay [4] was > 64 µg/mL in each case.
Regarding `O=C(N/N=C\c1ccccn1)c1nnc(-c2ccncc2)o1` [1e, (Z)-N’-(pyridin-2-ylmethylen)-5-(pyridin-4-yl)-1,3,4-oxadiazol-2-carbohydrazide], the MIC in assay [1] is 32 µg/mL and 108 µM; in assay [2] it was > 64 µg/mL; in assay [3] it was 4 µg/mL and 13.6 µM; in assay [4] it was 32 µg/mL and 108 µM.
As to `O=C(N/N=C\c1ccco1)c1nnc(-c2ccccc2)o1` [1n, (Z)-N’-(furan-2-ylmethylen)-5-phenyl-1,3,4-oxadiazol-2-carbohydrazide], the MIC in assay [1] was 32 µg/mL and 103 µM; in assay [2] it was > 64 µg/mL; in assay [3], 16 µg/mL and 56.6 µM; in assay [4], 32 µg/mL and 103 µM.
`O=C(N/N=C\c1ccncc1)c1nnc(-c2ccncc2)o1` [1f, (Z)-5-(pyridin-4-yl)-N’-(pyridin-4-ylmethylen)-1,3,4-oxadiazol-2-carbohydrazide]: the MIC in assay [1], in assay [2], in assay [3] and in assay [4] was > 64 µg/mL throughout.
Regarding `Cc1ccc(/C=N\NC(=O)c2nnc(-c3ccncc3)o2)cc1` [1c, (Z)-N’-(4-methylbenzyliden)-5-(pyridin-4-yl)-1,3,4-oxadiazol-2-carbohydrazide], the MIC in assay [1], in assay [2], in assay [3] and in assay [4] was > 64 µg/mL in each case.
Take `O=C(N/N=C\c1ccncc1)c1nnc(-c2ccccc2)o1` [1m, (Z)-5-phenyl-N’-(pyridin-4-ylmethylen)-1,3,4-oxadiazol-2-carbohydrazide]: the MIC in assay [1] is > 64 µg/mL; in assay [2], > 64 µg/mL; in assay [3] it was 16 µg/mL and 54.8 µM; in assay [4] it was > 64 µg/mL.
Regarding `O=C(N/N=C\c1ccccc1)c1nnc(-c2ccccc2)o1` [1h, (Z)-N’-benzyliden-5-phenyl-1,3,4-oxadiazol-2-carbohydrazide], the MIC in assay [1] is > 64 µg/mL; in assay [2] it was > 64 µg/mL; in assay [3], 64 µg/mL and 196 µM; in assay [4], > 64 µg/mL.
In the case of `O=C(N/N=C\c1ccccn1)c1nnc(-c2ccccc2)o1` [1l, (Z)-5-phenyl-N’-(pyridin-2-ylmethylen)-1,3,4-oxadiazol-2-carbohydrazide], the MIC in assay [1] was 32 µg/mL and 54.4 µM; in assay [2], > 64 µg/mL; in assay [3], 4 µg/mL and 13.6 µM; in assay [4], 64 µg/mL and 109 µM.
`Cc1ccc(C=NNC(=O)c2nnc(-c3ccccc3)o2)cc1` (mixture of isomers) [1j, (E/Z)-N’-(4-methylbenzyliden)-5-phenyl-1,3,4-oxadiazol-2-carbohydrazide]: the MIC in assay [1] is > 64 µg/mL; in assay [2], > 64 µg/mL; in assay [3] it was 16 µg/mL and 52.2 µM; in assay [4] it was > 64 µg/mL.
Consider `CO[C@H]1/C=C/O[C@@]2(C)Oc3c(C)c(O)c4c(O)c(c(/C=N/N5CCN(C)CC5)c(O)c4c3C2=O)NC(=O)/C(C)=C\C=C\[C@H](C)[C@H](O)[C@@H](C)[C@@H](O)[C@@H](C)[C@H](OC(C)=O)[C@@H]1C` [RIF, reference compound], for which the MIC is > 64 µg/mL in assay [1]; 0.25 µg/mL and 0.3 µM in assay [2]; 0.25 µg/mL and 0.3 µM in assay [3]; 0.25 µg/mL and 0.3 µM in assay [4].
